# “Also recorded” adds a separate entry of the source.
# Tests used:
# NCI-H460 cells [1] = type: cell-based, human; conditions: 48 hours
# H460 cells [2] = type: cell-based, human
# [3] = test system: protein markers in NCI-H460 cells; type: cell-based, human; conditions: 48 hours
# H460 cells [4] = type: cell-based, human; remark: listed apart in the source
# [5] = test system: marker genes in NCI-H460 cells; type: cell-based, human; conditions: 48 hours
# NCI-H460 cells [6] = type: cell-based, human
# NIH-3T3 cells = conditions: at 50 µM
# NCI-H460 cells [7] = type: cell-based, human; remark: listed apart in the source
# NCI-H460 cells [8] = type: cell-based, human; remark: listed apart in the source
# NCI-H460 cells [9] = type: cell-based, human; conditions: 48 hours; remark: listed apart in the source
# NCI-H460 cells [10] = type: cell-based, human; conditions: 48 hours; remark: listed apart in the source
compound,measurement,setting,value
"C=C(C)[C@@H]1CC[C@]2(CO)CC[C@]3(C)[C@H](CC[C@@H]4[C@@]5(C)CC[C@H](O)C(C)(C)[C@@H]5CC[C@]43C)[C@@H]12 [Betulin (3), Lup-20 (29)-ene-3, 28-diol]",invasive ability of NCI-H460 cells,NCI-H460 cells [1],inhibited in a dose-dependent manner
same,morphological changes of H460 cells,H460 cells [2],membrane blebbing and formation of apoptotic bodies
same,BCL-2L1 protein expression (immunocytochemistry),[3],marked inhibition
same,caspase-3 protein expression (immunofluorescence),[3],significant upregulation
same,caspase-6 protein expression (immunofluorescence),[3],significant upregulation
same,caspase-8 protein expression (immunofluorescence),[3],decreased with the increase in betulin treatment
same,expression of proliferative marker Ki-67,[3],significant inhibition
same,osteopontin levels (immunocytochemistry),[3],positively inhibited
same,colony formation,H460 cells [4],completely eradicated cancer cells
same,BAK gene expression,[5],upregulated
same,BAX gene expression,[5],upregulated
same,BCL-2L1 gene expression,[5],significantly downregulated
same,COX-2 gene expression,[5],inhibited
same,HRK gene expression,[5],upregulation
same,VEGF gene expression,[5],inhibited
same,caspase-3 gene expression,[5],significantly upregulated
same,caspase-6 gene expression,[5],significantly upregulated
same,caspase-8 gene expression,[5],inhibited; also recorded: significantly downregulated
same,caspase-9 gene expression,[5],significantly upregulated
same,p53 gene expression,[5],significantly downregulated
same,reduction in wound healing rates of treated vs untreated cells,NCI-H460 cells [6],approximate threefold reduction
same,cytotoxicity to normal NIH-3T3 cells,NIH-3T3 cells,noncytotoxic
same,activity against cancer cells compared to normal 3t3 cells,NCI-H460 cells [7],four times more active
same,induction of apoptosis (FACS),NCI-H460 cells [8],significantly underwent apoptosis in a dose-dependent manner
same,morphology of 3T3 cells,3T3 cells,regained their normal morphology and started to propagate
same,mitochondrial membrane potential (Δψm),NCI-H460 cells [9],collapse of MMP
same,nuclear morphology,NCI-H460 cells [10],"highly condensed nucleus, apoptotic bodies and DNA fragmentation"

# Reference: paper PMC6388989 (Cancer Management and Research, 2019)
